Assay results as given in patent US9828343B2, “Histone demethylase inhibitors” (Celgene Quanticel Research, Inc., priority 2012, dated 2017).

Molecular target: JMJD2C (Homo sapiens (Human), UniProt Q9H3R0)
Assay: JMJD2C TR-FRET in vitro enzyme inhibition assay
Assay type: biochemical
Conditions: 0.3 nM JMJD2C, H3K9me3-biotin peptide, 2 μM alpha-ketoglutaric acid
Text: This assay determines the ability of a test compound to inhibit Jarid1A, Jarid1B, and JMJD2C demethylase activity. Baculovirus expressed Jarid1A (GenBank Accession #NM_001042603, AA1-1090) was purchased from BPS Bioscience (Cat#50110). Baculovirus expressed Jarid1B (GenBank Accession #NM_006618, AA 2-751) was purchased from BPS Bioscience (Cat #50121) or custom made by MolecularThroughput. Baculovirus-expressed JMJD2C (GenBank Accession #BC143571, AA 2-372) was purchased from BPS Bioscience (Cat#50105).
The ability of test compounds to inhibit the activity of JMJD2C was determined in 384-well plate format under the following reaction conditions: 0.3 nM JMJD2C, 300 nM H3K9me3-biotin labeled peptide (Anaspec cat #64360), 2 μM alpha-ketoglutaric acid in assay buffer of 50 mM HEPES, pH7.3, 0.005% Brij35, 0.5 mM TCEP, 0.2 mg/ml BSA, 50 μM sodium L-ascorbate, and 2 μM ammonium iron(II) sulfate. Reaction product was determined quantitatively by TR-FRET after the addition of detection reagent Phycolink Streptavidin-allophycocyanin (Prozyme) and Europium-anti-di-methylated histone H3 lysine 9 (H3K9me2) antibody (PerkinElmer) in the presence of 5 mM EDTA in LANCE detection buffer (PerkinElmer) at a final concentration of 50 nM and 1 nM, respectively. […]

Sequence of JMJD2C (Q9H3R0 2-372): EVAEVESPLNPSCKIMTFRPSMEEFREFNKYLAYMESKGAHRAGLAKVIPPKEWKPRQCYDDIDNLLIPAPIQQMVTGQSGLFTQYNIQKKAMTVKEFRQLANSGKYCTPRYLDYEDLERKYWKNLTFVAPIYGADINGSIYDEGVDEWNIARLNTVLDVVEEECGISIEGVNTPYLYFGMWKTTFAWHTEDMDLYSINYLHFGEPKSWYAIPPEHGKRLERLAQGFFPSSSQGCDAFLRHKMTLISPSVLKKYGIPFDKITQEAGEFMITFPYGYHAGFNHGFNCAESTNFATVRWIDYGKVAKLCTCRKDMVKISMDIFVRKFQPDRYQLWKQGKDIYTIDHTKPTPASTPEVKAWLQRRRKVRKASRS

| Compound | IC50 [nM] |
| --- | --- |
| 3-{[(6-fluoro-3,4-dihydro-2H-chromen-4-yl)methyl]amino}pyridine-4-carboxylic acid [Example 65] | < 100 |
| O=C(O)c1ccncc1NCC1(O)CCCc2cc(Cl)ccc21 (centres unmarked) [Example 68, 3-{[(6-chloro-1-hydroxy-1,2,3,4-tetrahydronaphthalen-1-yl)methyl]amino}pyridine-4-carboxylic acid] | 100 to 1000 |
